Patent US20260216108A1, “PHARMACEUTICAL COMPOSITION CONTAINING A MITOPHAGY INDUCER” (HANGZHOU PHECDAMED CO., LTD., priority 2023, published 2026)

How the values were obtained:
Format in all cases: physicochemical
[1] = Compatibility test of API and auxiliary materials: appearance; conditions: opened
From the text: The experimental steps are as follows:
1. Taking out the sample according to the sampling time point set in the raw material and auxiliary material compatibility scheme (see Table 1).
2. Recording the appearance of the sample taken out. Appearance abnormalities include: (1) caking, (2) liquefaction, (3) discoloration.
(§1) The commonly used auxiliary materials for oral solid preparations are selected to mix with TJ0113 raw material in different proportions, placed under different conditions, and taken out at different time points respectively to judge the compatibility of the raw and auxiliary materials by using appearance, hygroscopic weight gain, content and relevant substances as indicators. According to the auxiliary material manual, the auxiliary materials used are commonly used auxiliary materials for oral solid preparations, and have been included in the current edition of the Chinese Pharmacopoeia, each auxiliary material has a stable nature. In order to objectively evaluate the compatibility of raw material and auxiliary materials used, the compatibility test was conducted on the raw material and each auxiliary material.
The ratio of the raw and auxiliary materials is set according to the “Basic Technical Guidance Principles for Research on Chemical Drug Preparations” and the preparation specifications, the auxiliary materials with a larger amount (such as lactose, microcrystalline cellulose) are mixed according to the ratio of main drug:diluent=1:5; the auxiliary materials with a moderate amount (such as croscarmellose sodium) are mixed according to the ratio of main drug:disintegrant=1:1; the auxiliary materials with a smaller amount (such as magnesium stearate) are mixed according to the ratio of main drug:lubricant=10:1. The manufacturer information and the ratio of raw and auxiliary materials for the compatibility experiment are shown in Table 1 below: […]

[2] = Compatibility test of API and auxiliary materials: hygroscopic weight gain; conditions: opened
From the text: 3. Detecting the hygroscopic weight gain of the sample.
as §1
The ratio of the raw and auxiliary materials is set according to the “Basic Technical Guidance Principles for Research on Chemical Drug Preparations” and the preparation specifications, the auxiliary materials with a larger amount (such as lactose, microcrystalline cellulose) are mixed according to the ratio of main drug:diluent=1:5; the auxiliary materials with a moderate amount (such as croscarmellose sodium) are mixed according to the ratio of main drug:disintegrant=1:1; the auxiliary materials with a smaller amount (such as magnesium stearate) are mixed according to the ratio of main drug:lubricant=10:1. The manufacturer information and the ratio of raw and auxiliary materials for the compatibility experiment are shown in Table 1 below:
(§2) Placing the samples under experimental conditions of high temperature (60° C.), high humidity (92.5% RH), acceleration (40° C./75% RH) and illumination (visible light 5500 Lux±500 Lux, near ultraviolet light 85 μw/cm2), […] Submitting the samples for relevant indicator testing (test items include appearance, hygroscopic weight gain, content and relevant substances), and comparing the test results with the control samples (raw material).

[3] = Compatibility test of API and auxiliary materials: content by HPLC; conditions: for Content: in % (unit assumed)
Experimental: (§3) 4. Using HPLC method to detect the content of the sample and relevant substances.
(§4) The parameters of the HPLC method for the detection of the content and relevant substances are detailed in Table 2 below.
as §2

[4] = Compatibility test of API and auxiliary materials: relevant substances (impurities) by HPLC; conditions: opened
Experimental: as §3, §4, §2

- Appearance ([1]; 40° C./75% RH, 30 d): gray powder
- Appearance ([1]; 92.5% RH, 30 d): gray powder
- Hygroscopic weight gain ([2]; 40° C./75% RH, 10 d): −3.6
- Hygroscopic weight gain ([2]; 40° C./75% RH, 30 d): −4.2
- Hygroscopic weight gain ([2]; 92.5% RH, 10 d): 5.5
- Content ([3]; 40° C./75% RH (opened), 10 d): 98.9
- Content ([3]; 40° C./75% RH (opened), 30 d): 97.3
- Content ([3]; 60° C. (opened), 10 d): 100.1
- Content ([3]; 60° C. (opened), 30 d): 101.4
- Change of content ([3]; 60° C., 92.5% RH, 40° C./75% RH opened, 10 days illumination): did not change significantly
- Content ([3]; 92.5% RH (opened), 10 d): 97.8
- Content ([3]; 92.5% RH (opened), 30 d): 99.9
- Content ([3]; Illumination (opened), 10 d): 100.8
- Content ([3]; Initial): 99.7
- % Impurities RRT0.37 ([4]; 40° C./75% RH, 0 d): <0.05%
- % Impurities RRT0.46 ([4]; 40° C./75% RH, 0 d): <0.05%
- % Impurities RRT0.89 ([4]; 40° C./75% RH, 0 d): 0.08%
- % Impurities RRT1.10 ([4]; 40° C./75% RH, 0 d): <0.05%
- % Impurities RRT1.16 ([4]; 40° C./75% RH, 0 d): 0.88%
- % Impurities RRT1.20 ([4]; 40° C./75% RH, 0 d): 0.09%
- % Impurities RRT1.24 ([4]; 40° C./75% RH, 0 d): <0.05%
- % Impurities RRT1.29 ([4]; 40° C./75% RH, 0 d): 0.14%
- % Impurities RRT1.33 ([4]; 40° C./75% RH, 0 d): 0.10%
- % Impurities RRT1.37 ([4]; 40° C./75% RH, 0 d): 0.07%
- % Impurities RRT1.41 ([4]; 40° C./75% RH, 0 d): <0.05%
- % Impurities RRT1.43 ([4]; 40° C./75% RH, 0 d): <0.05%
- % Impurities RRT1.73 ([4]; 40° C./75% RH, 0 d): <0.05%
- % Impurities RRT1.74 ([4]; 40° C./75% RH, 0 d): 0.05%
- % Impurities Total ([4]; 40° C./75% RH, 0 d): 1.41%
- % Impurities RRT0.37 ([4]; 40° C./75% RH, 10 d): <0.05%
- % Impurities RRT0.46 ([4]; 40° C./75% RH, 10 d): 0.11%
- % Impurities RRT0.89 ([4]; 40° C./75% RH, 10 d): 0.06%
- % Impurities RRT1.10 ([4]; 40° C./75% RH, 10 d): <0.05%
- % Impurities RRT1.16 ([4]; 40° C./75% RH, 10 d): 1.23%
- % Impurities RRT1.20 ([4]; 40° C./75% RH, 10 d): 0.06%
- % Impurities RRT1.24 ([4]; 40° C./75% RH, 10 d): <0.05%
- % Impurities RRT1.29 ([4]; 40° C./75% RH, 10 d): 0.08%
- % Impurities RRT1.33 ([4]; 40° C./75% RH, 10 d): 0.07%
- % Impurities RRT1.37 ([4]; 40° C./75% RH, 10 d): 0.05%
- % Impurities RRT1.41 ([4]; 40° C./75% RH, 10 d): 0.09%
- % Impurities RRT1.43 ([4]; 40° C./75% RH, 10 d): 0.07%
- % Impurities RRT1.54 ([4]; 40° C./75% RH, 10 d): 0.06%
- % Impurities RRT1.63 ([4]; 40° C./75% RH, 10 d): 0.21%
- % Impurities RRT1.65/1.70 ([4]; 40° C./75% RH, 10 d): <0.05%
- % Impurities RRT1.73 ([4]; 40° C./75% RH, 10 d): 0.59%
- % Impurities RRT1.74 ([4]; 40° C./75% RH, 10 d): 0.06%
- % Impurities Total ([4]; 40° C./75% RH, 10 d): 2.74%
- % Impurities RRT0.46 ([4]; 40° C./75% RH, 30 d): 0.20%
- % Impurities RRT0.89 ([4]; 40° C./75% RH, 30 d): 0.08%
- % Impurities RRT1.10 ([4]; 40° C./75% RH, 30 d): <0.05%
- % Impurities RRT1.16 ([4]; 40° C./75% RH, 30 d): 1.18%
- % Impurities RRT1.20 ([4]; 40° C./75% RH, 30 d): 0.05%
- % Impurities RRT1.24 ([4]; 40° C./75% RH, 30 d): <0.05%
- % Impurities RRT1.29 ([4]; 40° C./75% RH, 30 d): 0.14%
- % Impurities RRT1.33 ([4]; 40° C./75% RH, 30 d): 0.07%
- % Impurities RRT1.37 ([4]; 40° C./75% RH, 30 d): 0.08%
- % Impurities RRT1.41 ([4]; 40° C./75% RH, 30 d): 0.08%
- % Impurities RRT1.43 ([4]; 40° C./75% RH, 30 d): 0.07%
- % Impurities RRT1.54 ([4]; 40° C./75% RH, 30 d): <0.05%
- % Impurities RRT1.63 ([4]; 40° C./75% RH, 30 d): 0.24%
- % Impurities RRT1.65/1.70 ([4]; 40° C./75% RH, 30 d): <0.05%
- % Impurities RRT1.73 ([4]; 40° C./75% RH, 30 d): 0.74%
- % Impurities RRT1.74 ([4]; 40° C./75% RH, 30 d): 0.08%
- % Impurities Total ([4]; 40° C./75% RH, 30 d): 3.01%
- % Impurities RRT0.46 ([4]; 60° C., 0 d): <0.05%
- % Impurities RRT0.89 ([4]; 60° C., 0 d): 0.08%
- % Impurities RRT1.16 ([4]; 60° C., 0 d): 0.88%
- % Impurities RRT1.20 ([4]; 60° C., 0 d): 0.09%
- % Impurities RRT1.29 ([4]; 60° C., 0 d): 0.14%
- % Impurities RRT1.33 ([4]; 60° C., 0 d): 0.10%
- % Impurities RRT1.37 ([4]; 60° C., 0 d): 0.07%
- % Impurities RRT1.41 ([4]; 60° C., 0 d): <0.05%
- % Impurities RRT1.73 ([4]; 60° C., 0 d): <0.05%
- % Impurities RRT1.74 ([4]; 60° C., 0 d): 0.05%
- % Impurities Total ([4]; 60° C., 0 d): 1.41%
- % Impurities RRT0.46 ([4]; 60° C., 10 d): <0.05%
- % Impurities RRT0.89 ([4]; 60° C., 10 d): 0.08%
- % Impurities RRT1.16 ([4]; 60° C., 10 d): 0.87%
- % Impurities RRT1.20 ([4]; 60° C., 10 d): 0.07%
- % Impurities RRT1.29 ([4]; 60° C., 10 d): 0.17%
- % Impurities RRT1.33 ([4]; 60° C., 10 d): 0.08%
- % Impurities RRT1.37 ([4]; 60° C., 10 d): 0.06%
- % Impurities RRT1.41 ([4]; 60° C., 10 d): <0.05%
- % Impurities RRT1.73 ([4]; 60° C., 10 d): <0.05%
- % Impurities RRT1.74 ([4]; 60° C., 10 d): 0.07%
- % Impurities Total ([4]; 60° C., 10 d): 1.40%
SMILES: O=C(O)C[S+]([O-])c1cc(NS(=O)(=O)c2ccc(Br)cc2)c2ccccc2c1O (stereo not drawn) [API]
- Appearance ([1]; illumination, 30 days): turned into red, and their lower layers did not change color
